Experimental data: patent US8063071B2 (GlaxoSmithKline, LLC, priority 2007, dated 2011)
Counter-ions that a name gives are not always drawn.

Legend:
[1] = system: human monocyte stimulated cytokine production (TNF-α); test: Monocyte assay (LPS-stimulated TNF-α production); type: cell-based; conditions: for IC50: 24 h, 200 ng/mL LPS, TNF-α by ELISA; for inhibition at 0.3 µM: read-out: inhibition at 300 nM in the monocyte assay
Procedure, shortened: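 TNF-α release was measured by ELISA after 24 hrs at 37 C. Cells were stimulated with 200 ng/mL E. coli LPS, with compound added 30 minutes beforehand (0.1% DMSO vehicle). Cells were Ficoll/MACS-isolated CD14+ human monocytes adhered at 1×10^6 cells/mL, and viability was checked by trypan blue.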

[2] = biological target: T1, Recombinant human IKKβ (residues 1-737) (Homo sapiens, UniProt O14920); test: IKK2 assay (TR-FRET); type: biochemical; conditions: ATP 1 μM final, read-out: pIC50 against IKK2 (converted)
T1 construct: Recombinant human IKKβ (residues 1-737); GST (C); made in house
T1 sequence (O14920 1-737): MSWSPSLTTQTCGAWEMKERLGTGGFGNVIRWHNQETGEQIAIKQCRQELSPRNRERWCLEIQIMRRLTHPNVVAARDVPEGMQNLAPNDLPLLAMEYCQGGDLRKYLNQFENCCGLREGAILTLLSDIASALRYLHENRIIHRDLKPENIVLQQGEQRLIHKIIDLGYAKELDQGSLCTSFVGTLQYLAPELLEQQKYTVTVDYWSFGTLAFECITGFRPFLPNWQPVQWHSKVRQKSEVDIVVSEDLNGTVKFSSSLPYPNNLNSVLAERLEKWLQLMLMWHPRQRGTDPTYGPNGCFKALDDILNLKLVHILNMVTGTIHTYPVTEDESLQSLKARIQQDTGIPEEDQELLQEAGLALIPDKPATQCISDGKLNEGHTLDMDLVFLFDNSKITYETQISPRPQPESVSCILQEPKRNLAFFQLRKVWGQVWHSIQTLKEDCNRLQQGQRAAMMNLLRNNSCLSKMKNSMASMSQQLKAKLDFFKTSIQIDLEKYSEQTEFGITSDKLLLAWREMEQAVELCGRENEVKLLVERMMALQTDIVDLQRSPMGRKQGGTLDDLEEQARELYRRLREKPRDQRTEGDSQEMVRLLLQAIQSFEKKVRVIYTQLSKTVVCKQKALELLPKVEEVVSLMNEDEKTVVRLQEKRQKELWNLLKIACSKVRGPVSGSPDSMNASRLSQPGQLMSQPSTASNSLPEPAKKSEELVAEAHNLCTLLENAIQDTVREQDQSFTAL
Procedure, shortened: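 TR-FRET readout (665 nm over 620 nm Eu reference) of GST-IB Ser32/36 phosphorylation after 60 min detection. Reaction: 1 μM ATP, 25 nM substrate, 0.5-5 nM GST-fused IKKβ 1-737 from baculovirus, pH 7.4 HEPES buffer, 1.7% DMSO, 15 min room temperature, EDTA-terminated.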

| Structure (SMILES) | IC50 [1] [µM] | IC50 [2] [µM] | inhibition at 0.3 µM [1] [%] |
| --- | --- | --- | --- |
| CCS(=O)(=O)N1CCC(c2c[nH]c3c(C(N)=O)cc(-c4cccc(CN(CCOC)CCOC)c4)cc23)CC1 [Example 8, 5-[3-({bis[2-(methyloxy)ethyl]amino}methyl)phenyl]-3-[1-(ethylsulfonyl)-4-piperidinyl]-1H-indole-7-carboxamide] | ≤ 1.5 | ≤ 10 | – |
| CCS(=O)(=O)N1CCC(c2c[nH]c3c(C(N)=O)cc(-c4csc(CNCC5CCCC5)c4)cc23)CC1 [Example 112, 5-(5-{[(cyclopentylmethyl)amino]methyl}-3-thienyl)-3-[1-(ethylsulfonyl)-4-piperidinyl]-1H-indole-7-carboxamide trifluoroacetate] | ≤ 1.5 | ≤ 10 | – |
| CCS(=O)(=O)N1CCC(c2c[nH]c3c(C(N)=O)cc(-c4csc(CNCC5CCOCC5)c4)cc23)CC1 [Example 120, 3-[1-(ethylsulfonyl)-4-piperidinyl]-5-(5-{[(tetrahydro-2H-pyran-4-ylmethyl)amino]methyl}-3-thienyl)-1H-indole-7-carboxamide trifluoroacetate] | ≤ 1.5 | ≤ 10 | – |
| CCN1CCN(c2ccc(-c3cc(C(N)=O)c4[nH]cc(C5CCN(S(=O)(=O)CC)CC5)c4c3)cn2)CC1 [Example 136, 5-[6-(4-ethyl-1-piperazinyl)-3-pyridinyl]-3-[1-(ethylsulfonyl)-4-piperidinyl]-1H-indole-7-carboxamide trifluoroacetate] | > 1 | ≤ 10 | – |
| CCS(=O)(=O)N1CCC(c2c[nH]c3c(C(N)=O)cc(-c4cccc(CNS(=O)(=O)c5ccc(C(C)(C)C)cc5)c4)cc23)CC1 [Example 383, 5-{3-[({[4-(1,1-dimethylethyl)phenyl]sulfonyl}amino)methyl]phenyl}-3-[1-(ethylsulfonyl)-4-piperidinyl]-1H-indole-7-carboxamide] | ≤ 1.5 | ≤ 10 | – |
| CCS(=O)(=O)N1CCC(c2c[nH]c3c(C(N)=O)cc(-c4cc(CNCC(F)(F)F)ccc4F)cc23)CC1 [Example 36, 3-[1-(ethylsulfonyl)-4-piperidinyl]-5-(2-fluoro-5-{[(2,2,2-trifluoroethyl)amino]methyl}phenyl)-1H-indole-7-carboxamide trifluoroacetate] | > 1 | ≤ 10 | – |
| CCS(=O)(=O)N1CCC(c2c[nH]c3c(C(N)=O)cc(-c4ccc(CNC(=O)c5ccco5)cc4)cc23)CC1 [Example 131, 3-[1-(ethylsulfonyl)-4-piperidinyl]-5-(4-{[(2-furanylcarbonyl)amino]methyl}phenyl)-1H-indole-7-carboxamide] | ≤ 1.5 | ≤ 10 | – |
| CCCN(C)Cc1cc(-c2cc(C(N)=O)c3[nH]cc(C4CCN(S(=O)(=O)CC)CC4)c3c2)cs1 [Example 68, 3-[1-(ethylsulfonyl)-4-piperidinyl]-5-(5-{[methyl(propyl)amino]methyl}-3-thienyl)-1H-indole-7-carboxamide trifluoroacetate] | ≤ 1.5 | ≤ 10 | – |
| CCS(=O)(=O)N1CCC(c2c[nH]c3c(C(N)=O)cc(-c4csc(CN(C)Cc5ccsc5)c4)cc23)CC1 [Example 82, 3-[1-(ethylsulfonyl)-4-piperidinyl]-5-(5-{[methyl(3-thienylmethyl)amino]methyl}-1′-3-thienyl)-1H-indole-7-carboxamide trifluoroacetate] | ≤ 1.5 | ≤ 10 | – |
| CCS(=O)(=O)N1CCC(c2c[nH]c3c(C(N)=O)cc(-c4coc(CNC)c4)cc23)CC1 [Example 237, 3-[1-(ethylsulfonyl)-4-piperidinyl]-5-{5-[(methylamino)methyl]-3-furanyl}-1H-indole-7-carboxamide trifluoroacetate] | ≤ 1.5 | ≤ 10 | – |
| CCS(=O)(=O)N1CCC(c2c[nH]c3c(C(N)=O)cc(-c4csc(CN5CCC[C@@H]5C(N)=O)c4)cc23)CC1 [Example 48, 5-(5-{[(2R)-2-(aminocarbonyl)-1-pyrrolidinyl]methyl}-3-thienyl)-3-[1-(ethylsulfonyl)-4-piperidinyl]-1H-indole-7-carboxamide] | – | ≤ 10 | 0 to 60 |
| CCS(=O)(=O)N1CCC(c2c[nH]c3c(C(N)=O)cc(-c4cccc(CNS(=O)(=O)c5ccccc5Cl)c4)cc23)CC1 [Example 374, 5-[3-({[(2-chlorophenyl)sulfonyl]amino}methyl)phenyl]-3-[1-(ethylsulfonyl)-4-piperidinyl]-1H-indole-7-carboxamide] | > 1 | ≤ 10 | – |
| CCS(=O)(=O)N1CCC(c2c[nH]c3c(C(N)=O)cc(-c4cc(F)cc(CNCC5CC5)c4)cc23)CC1 [Example 322, 5-(3-{[(cyclopropylmethyl)amino]methyl}-5-fluorophenyl)-3-[1-(ethylsulfonyl)-4-piperidinyl]-1H-indole-7-carboxamide trifluoroacetate] | ≤ 1.5 | ≤ 10 | – |
| CCS(=O)(=O)N1CCC(c2c[nH]c3c(C(N)=O)cc(-c4ccc(CCNC)cc4)cc23)CC1 [Example 125, 3-[1-(ethylsulfonyl)-4-piperidinyl]-5-{4-[2-(methylamino)ethyl]phenyl}-1H-indole-7-carboxamide] | ≤ 1.5 | ≤ 10 | – |
| CCCN(C)Cc1cc(-c2cc(C(N)=O)c3[nH]cc(C4CCN(S(=O)(=O)C(C)C)CC4)c3c2)cs1 [Example 100, 3-{1-[(1-methylethyl)sulfonyl]-4-piperidinyl}-5-(5-{[methyl(propyl)amino]methyl}-3-thienyl)-1H-indole-7-carboxamide trifluoroacetate] | ≤ 1.5 | ≤ 10 | – |
| CCS(=O)(=O)N1CCC(c2c[nH]c3c(C(N)=O)cc(-c4cccc(C(C)NC(C)C)c4)cc23)CC1 (centres unmarked) [Example 293, 3-[1-(ethylsulfonyl)-4-piperidinyl]-5-(3-{1-[(1-methylethyl)amino]ethyl}phenyl)-1H-indole-7-carboxamide trifluoroacetate] | ≤ 1.5 | ≤ 10 | – |
| CCS(=O)(=O)N1CCC(c2c[nH]c3c(C(N)=O)cc(-c4cccc(CNCC(F)(F)F)c4)cc23)CC1 [Example 38, 3-[1-(ethylsulfonyl)-4-piperidinyl]-5-(3-{[(2,2,2-trifluoroethyl)amino]methyl}phenyl)-1H-indole-7-carboxamide trifluoroacetate] | ≤ 1.5 | ≤ 10 | – |
| CCc1cc(Br)ccc1S(=O)(=O)NCc1cccc(-c2cc(C(N)=O)c3[nH]cc(C4CCN(S(=O)(=O)CC)CC4)c3c2)c1 [Example 381, 5-[3-({[(4-bromo-2-ethylphenyl)sulfonyl]amino}methyl)phenyl]-3-[1-(ethylsulfonyl)-4-piperidinyl]-1H-indole-7-carboxamide] | > 1 | ≤ 10 | – |
| CC[C@H](C)NCc1cccc(-c2cc(C(N)=O)c3[nH]cc(C4CCN(S(=O)(=O)CC)CC4)c3c2)c1 [Example 157, 3-[1-(ethylsulfonyl)-4-piperidinyl]-5-[3-({[(1S)-1-methylpropyl]amino}methyl)phenyl]-1H-indole-7-carboxamide acetate] | ≤ 1.5 | ≤ 10 | – |
| CCS(=O)(=O)N1CCC(c2c[nH]c3c(C(N)=O)cc(-c4cc(F)cc(CN[C@H](C)C(C)C)c4)cc23)CC1 [Example 315, 5-[3-({[(1R)-1,2-dimethylpropyl]amino}methyl)-5-fluorophenyl]-3-[1-(ethylsulfonyl)-4-piperidinyl]-1H-indole-7-carboxamide trifluoroacetate] | ≤ 1.5 | ≤ 10 | – |
| CCS(=O)(=O)N1CCC(c2c[nH]c3c(C(N)=O)cc(-c4cc(F)cc(CNC[C@@H]5CCCO5)c4)cc23)CC1 [Example 312, 3-[1-(ethylsulfonyl)-4-piperidinyl]-5-[3-fluoro-5-({[(2S)-tetrahydro-2-furanylmethyl]amino}methyl)phenyl]-1H-indole-7-carboxamide trifluoroacetate] | ≤ 1.5 | ≤ 10 | – |
| CCS(=O)(=O)N1CCC(c2c[nH]c3c(C(N)=O)cc(-c4csc(CN5CC[C@H](N(C)C)C5)c4)cc23)CC1 [Example 49, 5-(5-{[(3S)-3-(dimethylamino)-1-pyrrolidinyl]methyl}-3-thienyl)-3-[1-(ethylsulfonyl)-4-piperidinyl]-1H-indole-7-carboxamide] | – | ≤ 10 | 0 to 60 |
